*1 amine or outer side, *2 acyl side, *3 side chain or, on linkers, in order; H or OH if unused. Where a SMILES comes first, the peptide text is derived from it. Bridges are numbered along the chain shown (N, C = ends). [ ]: non-standard residue; d: D form. ξ: configuration not given here. Trp(1-CH2COOH) = N[C@@H](Cc1cn(CC(=O)O)c2ccccc12)C(=O)O; Phe(3,4,5-F3) = N[C@@H](Cc1cc(F)c(F)c(F)c1)C(=O)O; Phe(4-F) = N[C@@H](Cc1ccc(F)cc1)C(=O)O; 1Nal = N[C@@H](Cc1cccc2ccccc12)C(=O)O; d(cisHyp) = O=C(O)[C@H]1C[C@@H](O)CN1; Bta = N[C@@H](Cc1csc2ccccc12)C(=O)O; Hyp = O=C(O)[C@@H]1C[C@@H](O)CN1; NMeF = CN[C@@H](Cc1ccccc1)C(=O)O; X9 = NN[C@H](N[*:1])C(=O)[*:2]; NMeL = CN[C@@H](CC(C)C)C(=O)O; NMeNle = CCCC[C@H](NC)C(=O)O; NMeV = CN[C@H](C(=O)O)C(C)C; hSer = N[C@@H](CCO)C(=O)O; NMeA = CN[C@@H](C)C(=O)O; Orn = NCCC[C@H](N)C(=O)O; Dab = NCC[C@H](N)C(=O)O; Dap = NC[C@H](N)C(=O)O; ξC = NC(CS)C(=O)O; Sar = CNCC(=O)O
biological target: T1, Human PD-L1/PD-1 (Homo sapiens, UniProt Q9NZQ7); assay: HTRF Human PD-L1/PD-1 binding assay (PD-1-Ig/PD-L1-His); details: PD-L1-His 10 nM, PD-1-Ig 20 nM; class symbol; read-out: HTRF Human PD-L1/PD-1 Binding Assay IC50 Range
T1 construct: TVMV protease cleavage site (C); made in house; host or cells: HEK293T cells
How it was run: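 Competition of macrocyclic peptides for PD-1/PD-L1 binding measured by HTRF in dPBS containing 0.1% BSA and 0.05% Tween-20. Compound and PD-L1-His (10 nM final) incubated 15 min before PD-1-Ig (20 nM final) and a further 15 min.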

T1 sequence (Q9NZQ7 with tags, fused parts or gaps): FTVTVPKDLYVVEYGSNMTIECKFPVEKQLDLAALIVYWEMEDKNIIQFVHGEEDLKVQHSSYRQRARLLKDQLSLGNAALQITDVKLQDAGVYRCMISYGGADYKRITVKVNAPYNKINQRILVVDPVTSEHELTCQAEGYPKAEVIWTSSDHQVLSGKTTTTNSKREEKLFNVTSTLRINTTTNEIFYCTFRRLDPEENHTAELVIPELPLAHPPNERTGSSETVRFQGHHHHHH

IC50	Compound
1 to 9.9 nM	CCCC[C@H]1C(=O)N(C)[C@@H](CCCC)C(=O)N[C@@H](CCC(=O)O)C(=O)N[C@H](C(=O)NCC(N)=O)CSCC(=O)N[C@@H](Cc2ccc(OC)cc2)C(=O)N(C)[C@@H](C)C(=O)N[C@@H](CCN)C(=O)N2CCC[C@H]2C(=O)N[C@@H](CN)C(=O)N[C@@H](CCC(=O)O)C(=O)N2C[C@H](O)C[C@H]2C(=O)N[C@@H](Cc2c[nH]c3ccccc23)C(=O)N[C@@H](CCN)C(=O)N[C@@H](Cc2cn(CC(=O)O)c3ccccc23)C(=O)N1C [Example 7140] ({CH2CO}-Y(Me)[NMeA][Dab]P[Dap]E[Hyp]W[Dab][Trp(1-CH2COOH)][NMeNle][NMeNle]ECG-NH2; thioether N-14)
1 to 9.9 nM	CCCC[C@H]1C(=O)N(C)[C@@H](CCCC)C(=O)N[C@@H](CCCNC(=N)N)C(=O)N[C@H](C(=O)NCC(N)=O)CSCC(=O)N[C@@H](Cc2ccc(O)cc2)C(=O)N(C)[C@@H](C)C(=O)N[C@@H](CC(N)=O)C(=O)N2CCC[C@H]2C(=O)N[C@@H](NN)C(=O)N[C@@H](CC(C)C)C(=O)N2C[C@H](O)C[C@H]2C(=O)N[C@@H](Cc2c[nH]c3ccccc23)C(=O)N[C@@H]([C@@H](C)O)C(=O)N[C@@H](Cc2c[nH]c3ccccc23)C(=O)N1C [Example 7073] ({CH2CO}-Y[NMeA]NP[X9]L[Hyp]WTW[NMeNle][NMeNle]RCG-NH2; thioether N-14)
1 to 9.9 nM	CCCC[C@H]1C(=O)N(C)[C@@H](CCCC)C(=O)N[C@@H](CN)C(=O)N[C@H](C(=O)NCC(N)=O)CSCC(=O)N[C@@H](Cc2ccc(O)cc2)C(=O)N(C)[C@@H](C)C(=O)N[C@@H](CC(N)=O)C(=O)N2CCC[C@H]2C(=O)N[C@@H](CN)C(=O)N[C@@H](CCC(N)=O)C(=O)N2C[C@H](O)C[C@H]2C(=O)N[C@@H](Cc2c[nH]c3ccccc23)C(=O)N[C@@H](CCN)C(=O)N[C@@H](Cc2cn(CC(=O)O)c3ccccc23)C(=O)N1C [Example 5213] ({CH2CO}-Y[NMeA]NP[Dap]Q[Hyp]W[Dab][Trp(1-CH2COOH)][NMeNle][NMeNle][Dap]CG-NH2; thioether N-14)
10 to 99.9 nM	CCCC[C@H]1C(=O)N(C)[C@@H](CCCC)C(=O)N[C@@H](CCCN)C(=O)N[C@H](C(=O)NCC(N)=O)CSCC(=O)N[C@@H](Cc2ccc(O)cc2)C(=O)N(C)[C@@H](C)C(=O)N[C@@H](CC(=O)O)C(=O)N2CCC[C@H]2C(=O)N[C@@H](Cc2cnc[nH]2)C(=O)N[C@@H](CCC(=O)O)C(=O)N2C[C@H](O)C[C@H]2C(=O)N[C@@H](Cc2c[nH]c3ccccc23)C(=O)N[C@@H](CO)C(=O)N[C@@H](Cc2cn(CC(=O)O)c3ccccc23)C(=O)N1C [Example 6269] ({CH2CO}-Y[NMeA]DPHE[Hyp]WS[Trp(1-CH2COOH)][NMeNle][NMeNle][Orn]CG-NH2; thioether N-14)
1 to 9.9 nM	CCCC[C@H]1C(=O)N(C)[C@@H](CCCC)C(=O)N[C@@H](CCC(=O)O)C(=O)N[C@H](C(=O)NCC(N)=O)CSCC(=O)N[C@@H](Cc2ccc(OC)cc2)C(=O)N(C)[C@@H](C)C(=O)N[C@@H](CCN)C(=O)N2CCC[C@H]2C(=O)N[C@@H](CN)C(=O)N[C@@H](CCC(=O)O)C(=O)N2C[C@H](O)C[C@H]2C(=O)N[C@@H](Cc2c[nH]c3ccccc23)C(=O)N[C@@H](CCN)C(=O)N[C@@H](Cc2c[nH]c3ccccc23)C(=O)N1C [Example 7112] ({CH2CO}-Y(Me)[NMeA][Dab]P[Dap]E[Hyp]W[Dab]W[NMeNle][NMeNle]ECG-NH2; thioether N-14)
1 to 9.9 nM	CCCC[C@H]1C(=O)N(C)[C@@H](CCCC)C(=O)N[C@@H](CCC(=O)O)C(=O)N[C@H](C(=O)NCC(N)=O)CSCC(=O)N[C@@H](Cc2ccc(O)cc2)C(=O)N(C)[C@@H](C)C(=O)N[C@@H](CC(=O)O)C(=O)N2CCC[C@H]2C(=O)N[C@@H](CN)C(=O)N[C@@H](CCC(=O)O)C(=O)N2C[C@H](O)C[C@H]2C(=O)N[C@@H](Cc2c[nH]c3ccccc23)C(=O)N[C@@H](CCN)C(=O)N[C@@H](Cc2c[nH]c3ccccc23)C(=O)N1C [Example 5224] ({CH2CO}-Y[NMeA]DP[Dap]E[Hyp]W[Dab]W[NMeNle][NMeNle]ECG-NH2; thioether N-14)
1000 to 10000 nM	CCCC[C@H]1C(=O)N2CCC[C@@H]2C(=O)N[C@@H](CC(=O)O)C(=O)N[C@@H](C(C)C)C(=O)N(C)[C@@H](C(C)C)C(=O)N[C@@H](CCC(N)=O)C(=O)N2CCC[C@@H]2C(=O)N[C@@H](Cc2c[nH]c3ccccc23)C(=O)N[C@@H](Cc2ccc(O)cc2)C(=O)N[C@@H](CC(C)C)C(=O)N[C@H](C(=O)NCC(N)=O)CSCC(=O)N[C@@H](Cc2ccc(F)cc2)C(=O)N(C)[C@@H](Cc2ccccc2)C(=O)N1C [Example 9245] ({CH2CO}-[Phe(4-F)][NMeF][NMeNle][dP]DV[NMeV]Q[dP]WYLCG-NH2; thioether N-13)
10 to 99.9 nM	CCCC[C@H]1C(=O)N2C[C@H](O)C[C@@H]2C(=O)N[C@@H](CC(=O)O)C(=O)N[C@@H](C(C)C)C(=O)N(C)[C@@H](Cc2ccccc2)C(=O)N[C@@H](CC(N)=O)C(=O)N2C[C@H](O)C[C@@H]2C(=O)N[C@@H](Cc2c[nH]c3ccccc23)C(=O)N[C@@H](Cc2ccc(O)cc2)C(=O)N[C@@H](CCC(=O)O)C(=O)N[C@H](C(=O)NCC(N)=O)CSCC(=O)N[C@@H](Cc2cc(F)c(F)c(F)c2)C(=O)N(C)[C@@H](Cc2ccccc2)C(=O)N1C [Example 9366] ({CH2CO}-[Phe(3,4,5-F3)][NMeF][NMeNle][d(cisHyp)]DV[NMeF]N[d(cisHyp)]WYECG-NH2; thioether N-13)
100 to 990 nM	CCCC[C@H]1C(=O)N2CCC[C@@H]2C(=O)N[C@@H](CC(=O)O)C(=O)N[C@@H](C(C)C)C(=O)N(C)[C@@H](CC(C)C)C(=O)N[C@@H](Cc2ccc(O)cc2)C(=O)N2CCC[C@@H]2C(=O)N[C@@H](Cc2c[nH]c3ccccc23)C(=O)N[C@@H](Cc2ccc(O)cc2)C(=O)N[C@@H](CCCN)C(=O)N[C@H](C(=O)NCC(N)=O)CSCC(=O)N[C@@H](Cc2ccc(F)cc2)C(=O)N(C)[C@@H](Cc2ccccc2)C(=O)N1C [Example 9251] ({CH2CO}-[Phe(4-F)][NMeF][NMeNle][dP]DV[NMeL]Y[dP]WY[Orn]CG-NH2; thioether N-13)
1 to 9.9 nM	CCCC[C@H]1C(=O)N(C)[C@@H](CCCC)C(=O)N[C@@H](CC(C)C)C(=O)N[C@H](C(=O)NCC(N)=O)CSCC(=O)N[C@@H](Cc2ccc(O)cc2)C(=O)N(C)[C@@H](C)C(=O)N[C@@H](CC(N)=O)C(=O)N2CCC[C@H]2C(=O)N[C@@H](CN)C(=O)N[C@@H](CC(C)C)C(=O)N(C)CC(=O)N[C@@H](Cc2c[nH]c3ccccc23)C(=O)N[C@@H](CCN)C(=O)N[C@@H](Cc2cn(CC(=O)O)c3ccccc23)C(=O)N1C [Example 6170] ({CH2CO}-Y[NMeA]NP[Dap]L[Sar]W[Dab][Trp(1-CH2COOH)][NMeNle][NMeNle]LCG-NH2; thioether N-14)
1 to 9.9 nM	CCCC[C@H]1C(=O)N(C)[C@@H](CCCC)C(=O)N[C@@H](CCC(=O)O)C(=O)N[C@H](C(=O)NCC(N)=O)CSCC(=O)N[C@@H](Cc2ccc(O)cc2)C(=O)N(C)[C@@H](C)C(=O)N[C@@H](CC(=O)O)C(=O)N2CCC[C@H]2C(=O)N[C@@H](Cc2c[nH]cn2)C(=O)N[C@@H](CCC(N)=O)C(=O)N2C[C@H](O)C[C@H]2C(=O)N[C@@H](Cc2c[nH]c3ccccc23)C(=O)N[C@@H](CO)C(=O)N[C@@H](Cc2csc3ccccc23)C(=O)N1C [Example 5215] ({CH2CO}-Y[NMeA]DPHQ[Hyp]WS[Bta][NMeNle][NMeNle]ECG-NH2; thioether N-14)
1000 to 10000 nM	CCCC[C@H]1C(=O)N(C)CC(=O)N[C@@H](CC(=O)O)C(=O)N[C@@H](C(C)C)C(=O)N(C)[C@@H](Cc2ccccc2)C(=O)N[C@@H](Cc2ccc(O)cc2)C(=O)N(C)CC(=O)N[C@@H](Cc2c[nH]c3ccccc23)C(=O)N[C@@H](Cc2ccc(O)cc2)C(=O)N[C@@H](CC(C)C)C(=O)N[C@H](C(=O)NCC(N)=O)CSCC(=O)N[C@@H](Cc2cccc3ccccc23)C(=O)N(C)[C@@H](Cc2ccccc2)C(=O)N1C [Example 3235] ({CH2CO}-[1Nal][NMeF][NMeNle][Sar]DV[NMeF]Y[Sar]WYLCG-NH2; thioether N-13)
10 to 99.9 nM	CCCC[C@H]1C(=O)N2C[C@H](O)C[C@@H]2C(=O)N[C@@H](CC(=O)O)C(=O)N[C@@H](C(C)C)C(=O)N(C)[C@@H](Cc2ccccc2)C(=O)N[C@@H](Cc2ccc(O)cc2)C(=O)N2C[C@H](O)C[C@@H]2C(=O)N[C@@H](Cc2c[nH]c3ccccc23)C(=O)N[C@@H](Cc2ccc(O)cc2)C(=O)N[C@@H](CCC(N)=O)C(=O)N[C@H](C(=O)NCC(N)=O)CSCC(=O)N[C@@H](Cc2cc(F)c(F)c(F)c2)C(=O)N(C)[C@@H](Cc2ccccc2)C(=O)N1C [Example 9328] ({CH2CO}-[Phe(3,4,5-F3)][NMeF][NMeNle][d(cisHyp)]DV[NMeF]Y[d(cisHyp)]WYQCG-NH2; thioether N-13)
1 to 9.9 nM	CCCC[C@H]1C(=O)N(C)[C@@H](CCCC)C(=O)N[C@@H](CCC(=O)O)C(=O)N[C@H](C(=O)NCC(N)=O)CSCC(=O)N[C@@H](Cc2ccc(O)cc2)C(=O)N(C)[C@@H](C)C(=O)N[C@@H](CC(=O)O)C(=O)N2CCC[C@H]2C(=O)N[C@@H](CO)C(=O)N[C@@H](CCC(=O)O)C(=O)N2C[C@H](O)C[C@H]2C(=O)N[C@@H](Cc2c[nH]c3ccccc23)C(=O)N[C@@H](CCC(=O)O)C(=O)N[C@@H](Cc2c[nH]c3ccccc23)C(=O)N1C [Example 5260] ({CH2CO}-Y[NMeA]DPSE[Hyp]WEW[NMeNle][NMeNle]ECG-NH2; thioether N-14)
10 to 99.9 nM	CCCC[C@H]1C(=O)N(C)[C@@H](CCCC)C(=O)N[C@@H](CCCNC(=N)N)C(=O)NC(C(=O)NCC(N)=O)CSCC(=O)N[C@@H](Cc2ccc(O)cc2)C(=O)N(C)[C@@H](C)C(=O)N[C@@H](CC(N)=O)C(=O)N2CCC[C@H]2C(=O)N[C@@H](CCO)C(=O)N[C@@H](CO)C(=O)N2C[C@H](O)C[C@H]2C(=O)N[C@@H](Cc2c[nH]c3ccccc23)C(=O)N[C@@H](CO)C(=O)N[C@@H](Cc2csc3ccccc23)C(=O)N1C (stereo partly drawn) [Example 10023] ({CH2CO}-Y[NMeA]NP[hSer]S[Hyp]WS[Bta][NMeNle][NMeNle]R[ξC]G-NH2; thioether N-14)

Source: patent US10538555B2, “Macrocyclic inhibitors of the PD-1/PD-L1 and CD80(B7-1)/PD-L1 protein/protein interactions” (BRISTOL-MYERS SQUIBB COMPANY, priority 2014, dated 2020)
